The values below are quoted from earlier work in US20130122120A1, “INSECTICIDAL COMPOSITIONS AND METHODS” (priority 2011, published 2013).

One data set has as its system aphids. To be noted: nymphs and adults.
For data set [1] the following is noted: applied directly to skin or consumed.

Turning to `CCCCCCCCCCCCOS(=O)(=O)[O-].[Na+]` [Sodium lauryl sulfate, Sodium dodecyl sulfate], the aggregation number entry (at the CMC) is “about 62”. Besides, the “critical micelle concentration (CMC)” value (pure water at 25° C.) was 8.2 mM. In addition, the efficacy against aphids result with aphids is “some limited efficacy for treating aphids, killing the nymphs, but merely delays death in adults”. In addition, the “Ames (bacterial mutation) test result” value in the data set with bacterial mutation was “negative”. In data set [1], the carcinogenicity result is listed as “not carcinogenic”.
